The results in this text go back to patent publication US11691992B2 (Anacor Pharmaceuticals, Inc., priority 2017, dated 2023).

Holding throughout (assay type): cell-based
In experiment [1] the test system is luciferase-expressing L. major parasites developing intracellularly inside RAW 264.7 macrophages. Nature of the experiment: Leishmania major intracellular amastigote assay in RAW 264.7 macrophages (luciferase). As to conditions: RAW264.7, 96 hours, read-out: IC50: I Org. intracellular amastigote Growth L. major, 4 d. The text has this: Example 107. Assay for Leishmania major Intracellular Amastigote Assay in RAW 264.7 Macrophages
The intracellular amastigote assay is a microtiter plate drug sensitivity assay that uses the activity of luciferase as a measure of proliferation of luciferase-expressing L. major parasites developing intracellularly inside RAW 264.7 macrophages in the presence of antileishmanial drugs or experimental compounds. (Buckner, F. S., and A. J. Wilson. Am J Prop Med Hyg, 2005, 72(5): 600-605.) As the activity of luciferase and its associated luminescence after addition of the substrate, luciferin, is relative to parasite growth, a test compound that inhibits the growth of the parasite will result in a lower luminescence. The luciferase-expressing L. major parasite used in this assay is genetically modified by adding the luciferase coding region to the pLEXSY-hyg2 vector (Jena Biosciences). The luciferase expression construct was created by digesting the luciferase coding region (1.66 kbp) of pGL3-Basic (Promega) by using two restriction enzymes, NcoI/EagI, followed by electrophoretic separation of the luciferase coding region on a 1% agarose gel. The luciferase coding region was then ligated into pLEXSY-hyg2 vector (Jena Biosciences) which had previously been digested with NcoI/NotI. The vector was linearized with SwaI and subsequently gel purified prior to transfection into L. major parasites. Transfections were carried out by electroporation at 480V, 13Ω, and 500 μF (0.4 mL of 1×10^8 parasites/mL, and 0.1 mL of 10 μg DNA). Selection for transfectants was then carried out using hygromycin B (100 μg/mL). RAW 264.7 macrophages were cultured in DMEM media (ATCC Cat #30-2002) supplemented with heat-inactivated 10% FBS (Invitrogen Cat #10438-034). To begin the assay, macrophages were harvested from culture by removing all spent media, adding in 10 mL fresh media, scraping cells, and counted using Trypan Blue. The cells were resuspended in DMEM/10% HIFBS media at 2.0×10^5 cells/mL, and then dispensed in a volume of 50 μL to yield a final concentration of 10,000 macrophages/well in 384 well tissue-culture treated sterile white plates (Nunc Cat #12-565-343) using a Tecan EVO Freedom robotics system. The plates were then incubated at 37° C. overnight in 5% CO2 atmosphere for 24 hours. After overnight incubation, the media was removed from each well using the Tecan EVO Freedom robot, and L. major promastigotes were added to each well and allowed to invade the RAW macrophages. Promastigotes were cultured in Schneider's medium (Invitrogen Cat #11720-067) supplemented with 20% heat inactivated FBS. Metacyclic stage promastigotes provide the best invasion for this assay, and cultures should be grown to increase the percentage of metacyclic promastigotes for best results. Promastigotes were harvested from culture, counted, suspended at 2×10^6 promastigotes/mL in DMEM/HIFBS media, and 100,000 promastigotes were dispensed per well in a volume of 50 μL. After overnight incubation, the media was removed from each well using the Tecan Freedom EVO robot, and each well was subsequently washed three times with 40 μF of fresh DMEM/HIFBS medium to remove all extracellular promastigotes. After the third wash, 69.2 μF of DMEM/HIFBS medium was added to each well using the Tecan EVO Freedom robot. Drug plates were prepared with the Tecan EVO Freedom using sterile 96 well plates containing twelve duplicate two-fold serial dilutions of each test compound suspended in DMSO. 7.8 μF of diluted test compound was added to the 69.2 μF of media present in each well providing a 10 fold final dilution of compound. The final concentration range tested was 0.5 to 10,000 ng/ml for all assays. The plates were next incubated at 37° C. and 5% CO2 for 96 hours. After 96 hours of incubation, 7.5 μF of a luciferin solution (Caliper Fife Science) diluted to 150 μg/mF was added to each well, and the plates were incubated for 30 minutes at 37° C., in the dark. […]

Experiment [2] deals with TdTomato-modified T. cruzi (CL strain) in Vero cells. Nature of the experiment: In vitro IC50 measurement of T. cruzi amastigote killing using TdTomato-modified T. cruzi (CL strain). As to conditions: Trypanosoma cruzi, 72 h, fluorescence, read-out: IC50: I Org. amastigote Growth T. cruzi CL TdTomato, 3 d. On the procedure:
Example 112. In Vitro IC50 Measurement of T. cruzi Amastigote Killing Using TdTomato-Modified T. cruzi (CL Strain)
The T. cruzi parasites used in this assay were genetically modified to express Td Tomato fluorescent protein. Vero cells (African green monkey kidney epithelial cells) were harvested from continuous cultures using trypsin and added to the inner 60 wells of 96-well Greiner Bio One plates (plate catalog #655090) at 200 ul/well of […]. Cells were allowed to adhere for 1 h before infection with T. cruzi. T. cruzi for infection were harvested from previously-infected Vero cells, washed, pelleted and resuspended at 5×10^6/mL. 50 uL of parasites were added to each well containing Vero cells. Compounds were prepared from 5 mM stock concentrations in DMSO to final concentrations in wells ranging from 5 uM to 5 nM. Wells were provided for negative controls, lacking compounds. Plates were placed into a 37° C. incubator for 20 min, then a “Day 0” reading was taken on a Synergy H4 plate reader to record initial fluorescence levels, at 544 (excitation) and 612 nm (emission). 96-well plates were placed in Tupperware containers with wet paper towels and incubated at 37° C. incubator for 72 h. After 72 h plates were reread (Day 3 reading) and data analyzed using Excel and/or Graphpad software. Day 0 fluorescence was subtracted from Day 3 to remove input parasite fluorescence. Growth curves are generated and 50% and 90% inhibitory concentrations are determined by nonlinear regression analysis.

The test system of experiment [3] is IL3000 T. congolense (drug sensitive) strain. Nature of the experiment: In vitro Alamar Blue 72 h drug sensitivity assay for T. congolense. The conditions noted are these: Trypanosoma congolense; bloodstream form, 69 h + 3 h resazurin, 34° C.; classes A-C; read-out: IC50: I Org. Growth T. congolense IL-3000, 3 d. On the procedure: Example 106. In Vitro Alamar Blue 72 h Drug Sensitivity Assay for T. congolense
Compounds were tested in vitro for chemotherapeutic potency against the IL3000 T. congolense (drug sensitive) strain, using the Alamar Blue assay with several modifications. Test compounds were prepared as 10 mg/mL DMSO stocks for each assay run. Compounds were assayed in at least three separate, independent test runs and an 11-point dilution curve was used to determine the IC50 values. Bloodstream form trypanosomes were supported in HMI media containing 20% bovine serum and were incubated with test compounds for 69 h at 34° C. in a humidified atmosphere containing 5% CO2. Thereafter, 10 μL of Resazurin dye (12.5 mg in 100 mL of phosphate buffered saline, Sigma-Aldrich, Buchs, Switzerland) were added for an additional 3 h. Plates were then read using a fluorescent plate reader (Spectramax, Gemini XS, Bucher Biotec, Basel, Switzerland) using an excitation wavelength of 536 nm and an emission wavelength of 588 nm. Data points were averaged to generate sigmoidal dose-response curves and IC50 values were determined using Softmax Pro 5.2 software.

Experiment [4] deals with bloodstream forms of T. b. rhodesiense STIB 900. Nature of the experiment: T. brucei rhodesiense STIB 900 growth inhibition assay. As to conditions: Trypanosoma brucei, 72 h. The text has this: Example 110. T. brucei rhodesiense STIB 900 Growth Inhibition Assay
The parasite strain used in this assay was isolated in 1982 from a human patient in Tanzania and after several mouse passages cloned and adapted to axenic culture conditions, ((a) Baltz, T., D. Baltz, C. Giroud, and J. Crockett. EMBO Journal, 1985, 4:1273-1277. (b) Thuita, J. K., S. M. Karanja, T. Wenzler, R. E. Mdachi, J. M. Ngotho, J. M. Kagira, R. Tidwell, and R. Brun. Acta Tropica 2008, 108:6-10.) Minimum Essential Medium (50 μl) supplemented with 25 mM HEPES, 1 g/l additional glucose, 1% MEM non-essential amino acids (100×), 0.2 mM 2-mercaptoethanol, 1 mM Na-pyruvate and 15% heat inactivated horse serum was added to each well of a 96-well microtiter plate. Serial drug dilutions of seven 3-fold dilution steps covering a range from 90 to 0.123 μg/ml were prepared. Then 10^4 bloodstream forms of T. b. rhodesiense STIB 900 in 50 μl was added to each well and the plate incubated at 37° C. under a 5% CO2 atmosphere for 72 h. 10 μl Alamar Blue (resazurin, 12.5 mg in 100 ml double-distilled water) was then added to each well and incubation continued for a further 2-4 h, (Raz, B., M. Iten, Y. Grether-Buhler, R. Kaminsky, and R. Brun. Acta Trap 1997, 68:139-47.) Then the plates were read with a Spectramax Gemini XS microplate fluorometer (Molecular Devices Cooperation, Sunnyvale, Calif., USA) using an excitation wave length of 536 nm and an emission wave length of 588 nm. Data were analyzed using the microplate reader software Softmax Pro (Molecular Devices Cooperation, Sunnyvale, Calif., USA).

Experiment [5] deals with L. infantum MHOM/MA(BE)/67 amastigotes in primary peritoneal mouse macrophages. The experiment is described as follows: Leishmania infantum intracellular amastigote assay in mouse macrophages. As to conditions: Macrophage, 120 h. On the procedure:
Example 111. Leishmania infantum Intracellular Amastigote Assay in Mouse Macrophages
L. infantum MHOM/MA(BE)/67 amastigotes were collected from the spleen of an infected donor hamster and used to infect primary peritoneal mouse macrophages. (Kaiser, M., Maes, L., Tadoori, L. P., Spangenberg, T., Ioset, J.-R. J. Biomol. Screen. 2015 20(5), 634-35.) To determine in vitro antileishmanial activity, 3×10^4 macrophages were seeded in each well of a 96-well plate. Culture medium was RPMI-1640 supplemented with L-glutamine (20 mM), 16.5 mM sodium hydrogen carbonate, and 10% fetal calf serum (FCS). After 2 d of outgrowth, 5×10^5 amastigotes/well were added and incubated for 2 h at 37° C. Prediluted samples to be tested were subsequently added, and the plates were further incubated for 5 d at 37° C. and 5% CO2. Total parasite burdens in the well were microscopically assessed after Giemsa staining and expressed as a percentage of the total burden in the blank controls without compound. In treated wells with high amastigote burdens, an overall estimate of the total burden per well was made without discrimination between the number of infected macrophages and the number of amastigotes per infected cell. In treated wells with low burdens, exact counting was performed. The 50% inhibitory concentrations (IC50s) were then generated for each dose response test using GraphPad Prism (GraphPad Software Inc., San Diego, Calif.) using the nonlinear regression (sigmoidal dose-response/variable slope) equation.

Setting [6] is: bloodstream forms, Alamar Blue, protocol of Example 110, read-out: IC50: I Org. Growth T. brucei rhodesiense STIB 900, 3 d.
[7] abbreviates: amastigotes in primary peritoneal mouse macrophages, 5 d, Giemsa staining, read-out: Inhibition of Organism Growth in Leishmania infantum MHOM/MA/BE/67, 5 d.

Like-named read-outs stand apart in the source and are kept apart here.

On to `Cc1c(C(=O)Nc2ccc3c(c2)B(O)OC3C)nnn1-c1ccccc1` (stereo not shown) [Example 1, N-(1-hydroxy-1,3-dihydrobenzo[c][1,2]oxaborol-6-yl)-5-methyl-1-phenyl-1H-Example 11,2,3-triazole-4-carboxamide], for which the IC50 in experiment [1] was no more than 1000 nM; in experiment [2], less than 600 nM.

As to `Cc1c(C(=O)Nc2ccc3c(c2)B(O)OC3)nnn1C1CCC1` [Example 42, 1-cyclobutyl-N-(1-hydroxy-1,3-dihydrobenzo[c][1,2]oxaborol-6-yl)-5-methyl-1H-1,2,3-triazole-4-carboxamide], the IC50 is 1100 to 9900 nM in experiment [1] and 600 to 1000 nM in experiment [2].

For the compound `CCCc1c(C(=O)Nc2ccc3c(c2)B(O)OC3)nnn1-c1ccccn1` [Example 50, N-(1-hydroxy-1,3-dihydrobenzo[c][1,2]oxaborol-6-yl)-5-propyl-1-(pyridin-2-yl)-1H-1,2,3-triazole-4-carboxamide], the IC50 in experiment [3] is 100 to 300 nM; in experiment [2], less than 600 nM.

As for `CC(C)c1c(C(=O)Nc2ccc3c(c2)B(O)OC3)nnn1-c1ccccn1` [Example 51, N-(1-hydroxy-1,3-dihydrobenzo[c][1,2]oxaborol-6-yl)-5-isopropyl-1-(pyridin-2-yl)-1H-1,2,3-triazole-4-carboxamide], the figures for the IC50 in experiment [3] and in experiment [2] were 100 to 300 nM and 600 to 1000 nM, respectively.

As to `COCCc1c(C(=O)Nc2ccc3c(c2)B(O)OC3)nnn1-c1ccccn1` [Example 52, N-(1-hydroxy-1,3-dihydrobenzo[c][1,2]oxaborol-6-yl)-5-(2-methoxyethyl)-1-(pyridin-2-yl)-1H-1,2,3-triazole-4-carboxamide], the figures for the IC50 in experiment [3] and in experiment [2] were 100 to 300 nM and 1100 to 10000 nM, respectively.

As for `Cn1c(C(=O)Nc2ccc3c(c2)B(O)OC3)nnc1-c1ccccn1` [Example 73, N-(1-hydroxy-1,3-dihydrobenzo[c][1,2]oxaborol-6-yl)-4-methyl-5-(pyridine-2-yl)-4H-1,2,4-triazole-3-carboxamide], the figures for the IC50 in experiment [4] (setting [6]) and in experiment [5] (setting [7]) were 0.1 to 0.3 µM and 3 to 19.9 µM, respectively.

Consider `Cc1cccc(-c2nc(C(=O)Nc3ccc4c(c3)B(O)OC4)nn2C)n1` [Example 74, N-(1-hydroxy-1,3-dihydrobenzo[c][1,2]oxaborol-6-yl)-1-methyl-5-(6-methylpyridin-2-yl)-1H-1,2,4-triazole-3-carboxamide], for which the IC50 in experiment [4] (setting [6]) was 0.1 to 0.3 µM; in experiment [5] (setting [7]), less than 3 µM.

For the compound `Cn1nc(C(=O)Nc2ccc3c(c2)B(O)OC3)nc1-c1cccnc1` [Example 78a, N-(1-hydroxy-1,3-dihydrobenzo[c][1,2]oxaborol-6-yl)-1-methyl-5-(pyridin-3-yl)-1H-1,2,4-triazole-3-carboxamide], the IC50 in experiment [4] (read-out: IC50: I Org. Growth T. brucei rhodesiense STIB 900, 3 d [uM]) lay in the range of 0.31 to 10 µM; in experiment [5] (read-out: Inhibition of Organism Growth in Leishmania infantum MHOM/MA/BE/67, 5 d [uM]), 3 to 19.9 µM.
